Measurements published in ChEMBL document CHEMBL6177980 (J Med Chem, 2025).
Calls of active or inactive are those of the source. The rule behind the calls is not given here.

Legend:
[1] = Prodrug conversion in C57BL/6J mouse assessed as Cmax of 4'-Fluorouridine metabolite at 20 mg/kg, po by LC-MS/MS analysis; type: ADME, organism-based; conditions: in vivo
[2] = Prodrug conversion in Beagle dog assessed as Cmax of 4'-Fluorouridine metabolite at 3 mg/kg/day, po treated for 7 days by LC-MS/MS analysis; type: ADME, organism-based, Canis lupus familiaris; conditions: in vivo, 168 h, time 7 day
[3] = AUC (0 to t) in fasted Sprague-Dawley rat at 23 mg/kg, po by LC-MS/MS analysis; type: ADME, organism-based; conditions: in vivo
[4] = tested on: Mammarenavirus choriomeningitidis; assay: Antiviral activity against LCMV infected in C57BL/6-Prf1tm1Sdz/J mouse assessed as reduction in viral copy number in kidney treated orally once daily for 7 days by RT-qPCR analysis; type: functional, organism-based; conditions: dose 1-5 mg/kg, route po, time 7.0 day
[5] = tested on: Mammarenavirus choriomeningitidis; assay: In vivo antiviral activity against LCMV infected in C57BL/6-Prf1tm1Sdz/J mouse assessed as improvement in body weight loss at 1 to 5 mg/kg, po qd treated for 7 days; type: functional, organism-based; conditions: dose 1-5 mg/kg, time 7.0 day
[6] = Prodrug conversion in Sprague-Dawley rat assessed as AUC (0 to t) of 4'-Fluorouridine metabolite at 2 mg/kg, po by LC-MS/MS analysis; type: ADME, organism-based; conditions: in vivo
[7] = Prodrug conversion in Sprague-Dawley rat assessed as Cmax of 4'-Fluorouridine metabolite at 20 mg/kg, po by LC-MS/MS analysis; type: ADME, organism-based; conditions: in vivo
[8] = tested on: Mammarenavirus choriomeningitidis; assay: In vivo antiviral activity against LCMV infected in C57BL/6-Prf1tm1Sdz/J mouse assessed as animal survival rate at 1 to 5 mg/kg, po qd treated for 7 days relative to control; type: functional; conditions: dose 1-5 mg/kg, time 7 day
[9] = Prodrug conversion in Beagle dog liver microsomes assessed as parent nucleoside metabolite formation at 1 uM measured up to 60 mins in presence of BNPP/NADPH/UDPGA by LC-MS/MS analysis; type: ADME, Canis lupus familiaris, Microsome; conditions: 1 h
[10] = Prodrug conversion in Sprague-Dawley rat liver microsomes assessed as parent nucleoside metabolite formation at 1 uM measured up to 60 mins in presence of NADPH/UDPGA by LC-MS/MS analysis; type: ADME, Microsome; conditions: 1 h
[11] = tested on: Mammarenavirus choriomeningitidis; assay: In vivo antiviral activity against LCMV infected in C57BL/6-Prf1tm1Sdz/J mouse assessed as improvement in splenic tissue lesion at 1 to 5 mg/kg, po qd for 7 days; type: functional, organism-based; conditions: dose 1-5 mg/kg, time 7.0 day
[12] = Stability in Beagle dog plasma administered orally or intravenously; type: ADME, cell-free, Canis lupus familiaris; conditions: po
[13] = Prodrug conversion in Sprague-Dawley rat assessed as 4'-Fluorouridine-NTP metabolite formation in spleen at 6 mg/kg, po measured for 0.5 to 24 hrs by LC-MS/MS analysis; type: ADME, organism-based; conditions: in vivo, time 0.5-24 hrs
[14] = tested on: Mammarenavirus choriomeningitidis; assay: In vivo antiviral activity against LCMV infected in C57BL/6-Prf1tm1Sdz/J mouse assessed as improvement in platelet count at 1 to 5 mg/kg, po qd treated for 7 days; type: functional, organism-based; conditions: dose 1-5 mg/kg, time 7.0 day
[15] = Prodrug conversion in Beagle dog assessed as Cmax of 4'-Fluorouridine metabolite at 1 mg/kg, po by LC-MS/MS analysis; type: ADME, organism-based, Canis lupus familiaris; conditions: in vivo
[16] = Prodrug conversion in Beagle dog plasma assessed as parent nucleoside metabolite formation at 1 uM measured up to 60 mins by LC-MS/MS analysis; type: ADME, cell-free, Canis lupus familiaris; conditions: 1 h
[17] = Oral bioavailability in fasted Cynomolgus monkey administered orally by LC-MS/MS analysis; type: ADME, organism-based, Macaca fascicularis; conditions: in vivo
[18] = biological target: Voltage-gated inwardly rectifying potassium channel KCNH2 (Homo sapiens, UniProt Q12809); assay: Inhibition of hERG; type: toxicity
Voltage-gated inwardly rectifying potassium channel KCNH2, sequence (Q12809 whole entry): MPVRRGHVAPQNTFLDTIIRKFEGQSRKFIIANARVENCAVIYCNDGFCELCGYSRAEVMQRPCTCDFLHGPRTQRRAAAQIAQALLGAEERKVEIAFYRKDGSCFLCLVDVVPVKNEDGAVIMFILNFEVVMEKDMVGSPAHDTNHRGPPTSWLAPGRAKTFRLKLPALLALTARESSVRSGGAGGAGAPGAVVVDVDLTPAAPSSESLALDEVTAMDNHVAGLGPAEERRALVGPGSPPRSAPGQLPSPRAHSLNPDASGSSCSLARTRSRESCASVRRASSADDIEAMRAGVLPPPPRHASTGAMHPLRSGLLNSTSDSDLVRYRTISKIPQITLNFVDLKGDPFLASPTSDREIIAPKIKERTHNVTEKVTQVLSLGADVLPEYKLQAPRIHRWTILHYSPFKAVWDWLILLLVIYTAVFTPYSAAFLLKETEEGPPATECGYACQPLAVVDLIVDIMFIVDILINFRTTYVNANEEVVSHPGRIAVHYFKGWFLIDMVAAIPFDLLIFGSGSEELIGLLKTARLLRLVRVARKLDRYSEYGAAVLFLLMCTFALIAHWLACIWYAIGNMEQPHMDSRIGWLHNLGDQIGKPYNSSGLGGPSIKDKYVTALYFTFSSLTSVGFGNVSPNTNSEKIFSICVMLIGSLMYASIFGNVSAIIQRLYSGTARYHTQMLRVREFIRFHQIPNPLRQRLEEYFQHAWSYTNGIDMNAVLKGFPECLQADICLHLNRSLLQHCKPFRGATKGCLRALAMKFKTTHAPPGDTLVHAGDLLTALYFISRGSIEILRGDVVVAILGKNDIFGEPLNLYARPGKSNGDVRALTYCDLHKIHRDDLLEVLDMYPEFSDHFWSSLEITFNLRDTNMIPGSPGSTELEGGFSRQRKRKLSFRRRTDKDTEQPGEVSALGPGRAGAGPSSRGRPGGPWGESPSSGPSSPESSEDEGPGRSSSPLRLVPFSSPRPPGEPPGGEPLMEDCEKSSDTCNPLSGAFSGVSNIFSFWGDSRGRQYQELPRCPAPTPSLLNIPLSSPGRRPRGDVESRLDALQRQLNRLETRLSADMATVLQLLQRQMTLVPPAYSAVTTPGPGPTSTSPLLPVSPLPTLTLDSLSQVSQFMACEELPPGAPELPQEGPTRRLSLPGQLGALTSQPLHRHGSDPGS

HepG2 [19] = assay: Mitochondrial toxicity in human HepG2 cells cultured in glucose containing medium at 100 uM; type: cell-based; conditions: hepg2, 100 µM
[20] = Prodrug conversion in Sprague-Dawley rat assessed as 4'-Fluorouridine metabolite formation in brain at 6 mg/kg, po measured for 0.5 to 24 hrs by LC-MS/MS analysis; type: ADME, organism-based; conditions: in vivo, time 0.5-24 hrs
[21] = Prodrug conversion in Beagle dog assessed as AUC (0 to t) of 4'-Fluorouridine metabolite at 10 mg/kg, po by LC-MS/MS analysis; type: ADME, organism-based, Canis lupus familiaris; conditions: in vivo
[22] = Prodrug conversion in C57BL/6J mouse liver microsomes assessed as parent nucleoside metabolite formation at 1 uM measured up to 60 mins in presence of BNPP/NADPH/UDPGA by LC-MS/MS analysis; type: ADME, Microsome; conditions: 1 h
[23] = tested on: Mammarenavirus choriomeningitidis; assay: Antiviral activity against LCMV infected in C57BL/6-Prf1tm1Sdz/J mouse assessed as reduction in viral titer in lung treated orally once daily for 7 days by RT-qPCR analysis; type: functional, organism-based; conditions: dose 1-5 mg/kg, route po, time 7.0 day
[24] = Prodrug conversion in Sprague-Dawley rat assessed as AUC (0 to t) of 4'-Fluorouridine metabolite at 20 mg/kg, po by LC-MS/MS analysis; type: ADME, organism-based; conditions: in vivo
[25] = Prodrug conversion in Sprague-Dawley rat liver microsomes assessed as parent nucleoside metabolite formation at 1 uM measured up to 60 mins in presence of BNPP/NADPH/UDPGA by LC-MS/MS analysis; type: ADME, Microsome; conditions: 1 h
[26] = Cmax in fasted Cynomolgus monkey at 11.6 mg/kg, po by LC-MS/MS analysis; type: ADME, organism-based, Macaca fascicularis; conditions: in vivo
[27] = Prodrug conversion in C57BL/6J mouse plasma assessed as parent nucleoside metabolite formation administered orally or intravenously; type: ADME, cell-free; conditions: po
[28] = Stability of compound at pH 4.0 assessed as change in purity at 1 mg/ml incubated for 24 hrs by HPLC analysis; type: physicochemical; conditions: buffer, pH 4, 24 h
[29] = Prodrug conversion in Sprague-Dawley rat plasma assessed as parent nucleoside metabolite formation administered orally or intravenously; type: ADME, cell-free; conditions: po
HepG2 [30] = assay: Mitochondrial toxicity in human HepG2 cells cultured in galactose containing medium at 100 uM; type: cell-based; conditions: hepg2, 100 µM
[31] = Prodrug conversion in Sprague-Dawley rat assessed as 4'-Fluorouridine metabolite formation in small intestine at 6 mg/kg, po measured for 0.5 to 24 hrs by LC-MS/MS analysis; type: ADME, organism-based; conditions: in vivo, time 0.5-24 hrs
[32] = Prodrug conversion in Sprague-Dawley rat assessed as 4'-Fluorouridine metabolite formation in spleen at 6 mg/kg, po measured for 0.5 to 24 hrs by LC-MS/MS analysis; type: ADME, organism-based; conditions: in vivo, time 0.5-24 hrs
[33] = Prodrug conversion in Beagle dog assessed as half life of 4'-Fluorouridine metabolite treated orally or intravenously by LC-MS/MS analysis; type: ADME, Canis lupus familiaris; conditions: in vivo, po
[34] = Prodrug conversion in C57BL/6J mouse assessed as Cmax of 4'-Fluorouridine metabolite at 2 mg/kg, po by LC-MS/MS analysis; type: ADME, organism-based; conditions: in vivo
[35] = Stability of compound at pH 6.8 assessed as change in purity at 1 mg/ml incubated for 24 hrs by HPLC analysis; type: physicochemical; conditions: buffer, pH 6.8, 24 h
[36] = Prodrug conversion in C57BL/6J mouse assessed as AUC (0 to t) of 4'-Fluorouridine metabolite at 2 mg/kg, po by LC-MS/MS analysis; type: ADME, organism-based; conditions: in vivo
A549 = assay: Cytotoxicity against human A549 cells up to 100 uM; type: toxicity, cell-based; conditions: a549, 100 µM
[37] = Prodrug conversion in Sprague-Dawley rat assessed as Cmax of 4'-Fluorouridine metabolite at 2 mg/kg, po by LC-MS/MS analysis; type: ADME, organism-based; conditions: in vivo

## CC(C)C(=O)OC[C@@]1(F)O[C@@H](n2ccc(=O)n(COC(=O)c3cccnc3)c2=O)[C@H](OC(=O)C(C)C)[C@@H]1OC(=O)C(C)C
[1]
  Cmax: 788 ng/mL
[2]
  Cmax: 411 ng/mL
[3]
  AUC(0-t): 11800 ng·h/mL
[4]
  Activity: Dose-dependent-effect
[5]
  Activity: Active
[6]
  AUCt: 962 ng·h/mL
[7]
  Cmax: 1142 ng/mL
[8]
  Survival: 100%
[9]
  Drug metabolism: metabolite_notdetected
[10]
  Drug metabolism: metabolite_detected
[11]
  Activity: Active
[12]
  Stability: Unstable
[13]
  Drug metabolism: metabolite_detected
[14]
  Activity: Active
[15]
  Cmax: 139 ng/mL
[16]
  Drug metabolism: metabolite_detected
[17]
  bioavailability: 75.2%
[18]
  inhibition (INH): Not_active
HepG2 [19]
  Activity: Non-toxic
[20]
  Drug metabolism: metabolite_detected
[21]
  AUCt: 3601 ng·h/mL
[22]
  Drug metabolism: metabolite_notdetected
[23]
  Activity: Dose-dependent-effect
[24]
  AUCt: 11325 ng·h/mL
[25]
  Drug metabolism: metabolite_notdetected
[26]
  Cmax: 2390 ng/mL
[27]
  Drug metabolism: metabolite_detected
[28]
  Activity: -0.1%
[29]
  Drug metabolism: metabolite_detected
HepG2 [30]
  Activity: Non-toxic
[31]
  Drug metabolism: metabolite_detected
[32]
  Drug metabolism: metabolite_detected
[33]
  t1/2: 1 h
[34]
  Cmax: 57 ng/mL
[35]
  Activity: -0.6%
[36]
  AUCt: 826 ng·h/mL
A549
  Activity: Non-toxic
[37]
  Cmax: 119 ng/mL
